Tests used:
Assay in all cases: NCI60 one-dose screen
Format in all cases: cell-based
A549/ATCC = settings: Homo sapiens, read-out: Growth percent
Outline: (§1)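 SRB read-out (515 nm) after 48 h drug exposure at 37 °C, 5% CO2; single dose 10 µM. Value = growth relative to no-drug control and time-zero cell count; 100 = no inhibition, 0 = no net growth, negative = lethality.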

SF-539 = settings: Homo sapiens; SF-539, 10 μM; read-out: Growth percent
Outline: as §1

RPMI-8226 = settings: Homo sapiens; RPMI-8226, 10 μM; read-out: Growth percent
Outline: as §1

DU-145 = settings: Homo sapiens; DU-145, 10 μM; read-out: Growth percent
Outline: as §1

M14 = settings: Homo sapiens; M14, 10 μM; read-out: Growth percent
Outline: as §1

OVCAR-4 = settings: Homo sapiens; OVCAR-4, 10 μM; read-out: Growth percent
Outline: as §1

HCT-116 = settings: Homo sapiens; HCT-116, 10 μM; read-out: Growth percent
Outline: as §1

SF-268 = settings: Homo sapiens; SF-268, 10 μM; read-out: Growth percent
Outline: as §1

MDA-MB-468 = settings: Homo sapiens; MDA-MB-468, 10 μM; read-out: Growth percent
Outline: as §1

TK-10 = settings: Homo sapiens; TK-10, 10 μM; read-out: Growth percent
Outline: as §1

SF-295 = settings: Homo sapiens; SF-295, 10 μM; read-out: Growth percent
Outline: as §1

EKVX = settings: Homo sapiens, read-out: Growth percent
Outline: as §1

MOLT-4 = settings: Homo sapiens; MOLT-4, 10 μM; read-out: Growth percent
Outline: as §1

KM12 = settings: Homo sapiens; KM12, 10 μM; read-out: Growth percent
Outline: as §1

BT-549 = settings: Homo sapiens; BT-549, 10 μM; read-out: Growth percent
Outline: as §1

CAKI-1 = settings: Homo sapiens; CAKI-1, 10 μM; read-out: Growth percent
Outline: as §1

LOX IMVI = settings: Homo sapiens, read-out: Growth percent
Outline: as §1

MDA-MB-435 = settings: Homo sapiens; MDA-MB-435, 10 μM; read-out: Growth percent
Outline: as §1

HL-60(TB) = settings: Homo sapiens, read-out: Growth percent
Outline: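 Protein content was quantified by SRB after TCA fixation at 4 °C for 1 h, following 48 h treatment with 10 µM compound. Growth was calculated as (ti − tz)/(c − tz) × 100, or (ti − tz)/tz × 100 when cell number fell below time zero.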

HOP-62 = settings: Homo sapiens; HOP-62, 10 μM; read-out: Growth percent
Outline: as §1

NCI/ADR-RES = settings: Homo sapiens, read-out: Growth percent
Outline: as §1

O=c1cc(-c2ccccc2)oc2cc(OCCCC[P+](c3ccccc3)(c3ccccc3)c3ccccn3)cc(O)c12 [3h]
activity at 10 µM (A549/ATCC): -43.5% | activity at 10 µM (SF-539): -96.5% | activity at 10 µM (RPMI-8226): -35.3% | activity at 10 µM (DU-145): -95.3% | activity at 10 µM (M14): -84.3% | activity at 10 µM (OVCAR-4): -51.2% | activity at 10 µM (HCT-116): -61.6% | activity at 10 µM (SF-268): -67.6% | activity at 10 µM (MDA-MB-468): -90.7% | activity at 10 µM (TK-10): -93.3% | activity at 10 µM (SF-295): -92.7% | activity at 10 µM (EKVX): -93.1% | activity at 10 µM (MOLT-4): 21.1% | activity at 10 µM (KM12): -94.6% | activity at 10 µM (BT-549): -69.7% | activity at 10 µM (CAKI-1): -71.2% | activity at 10 µM (LOX IMVI): -84.1% | activity at 10 µM (MDA-MB-435): -80.8% | activity at 10 µM (HL-60(TB)): 0.68% | activity at 10 µM (HOP-62): -57% | activity at 10 µM (NCI/ADR-RES): -41.3%

O=c1cc(-c2ccccc2)oc2cc(O)cc(O)c12 [compound 2, 5,7-dihydroxyflavone, reference compound]
activity at 10 µM (A549/ATCC): 98.5% | activity at 10 µM (SF-539): 92.2% | activity at 10 µM (RPMI-8226): 101% | activity at 10 µM (DU-145): 92% | activity at 10 µM (M14): 107% | activity at 10 µM (OVCAR-4): 112% | activity at 10 µM (HCT-116): 82.7% | activity at 10 µM (SF-268): 102% | activity at 10 µM (MDA-MB-468): 91.1% | activity at 10 µM (TK-10): 107% | activity at 10 µM (SF-295): 99.9% | activity at 10 µM (EKVX): 89.3% | activity at 10 µM (MOLT-4): 106% | activity at 10 µM (KM12): 92.9% | activity at 10 µM (BT-549): 91% | activity at 10 µM (CAKI-1): 83.6% | activity at 10 µM (LOX IMVI): 85.1% | activity at 10 µM (MDA-MB-435): 99.5% | activity at 10 µM (HL-60(TB)): 116% | activity at 10 µM (HOP-62): 113% | activity at 10 µM (NCI/ADR-RES): 92.8%
